pIC50: −log10 of the molar value. Active and inactive are the calls of the source. The rule behind the calls is not given here.
Tests used:
PANC-1 [1] = test: Induction of apoptosis in human PANC-1 cells assessed as late apoptotic cells at IC50 incubated for 24 hrs by annexin V-FITC/PI staining based flow cytometry analysis (reference value: 0.2%); type: functional
A549 [2] = test: Induction of morphological changes in human A549 cells assessed as chromatin condensation at 5.99 uM incubated for 24 hrs by acridine orange/ethidium bromide staining based fluorescence microscopic analysis; type: functional, cell-based
PANC-1 [3] = test: Induction of apoptosis in human PANC-1 cells assessed as early apoptotic cells at IC50 incubated for 24 hrs by annexin V-FITC/PI staining based flow cytometry analysis (reference value: 0%); type: functional
A549 [4] = test: Induction of apoptosis in human A549 cells assessed as total apoptotic cells at IC50 incubated for 24 hrs by annexin V-FITC/PI staining based flow cytometry analysis relative to control; type: functional
A549 [5] = test: Induction of mitochondrial membrane potential loss in human A549 cells assessed as polarized cells at IC50 incubated for 24 hrs by JC-1 staining based flow cytometry assay (reference value: 90.6%); type: functional
A549 [6] = test: Induction of apoptosis in human A549 cells assessed as late apoptotic cells at IC50 incubated for 24 hrs by annexin V-FITC/PI staining based flow cytometry analysis (reference value: 6.5 %); type: functional
PANC-1 [7] = test: Induction of apoptosis in human PANC-1 cells assessed as activation of caspase-3 by measuring caspase-3 negative cells at IC50 incubated for 24 hrs by flow cytometry analysis (reference value: 98.5 %); type: functional
PANC-1 [8] = test: Induction of apoptosis in human PANC-1 cells assessed as activation of caspase-3 by measuring caspase-3 positive cells at IC50 incubated for 24 hrs by flow cytometry analysis (reference value: 1.8%); type: functional
PANC-1 [9] = test: Induction of mitochondrial membrane potential loss in human PANC-1 cells assessed as depolarized cells at IC50 incubated for 24 hrs by JC-1 staining based flow cytometry assay (reference value: 5%); type: functional
A549 [10] = test: Induction of apoptosis in human A549 cells assessed as total cell viability at IC50 incubated for 24 hrs by annexin V-FITC/PI staining based flow cytometry analysis (reference value: 85.6 %); type: functional
A549 [11] = test: Induction of apoptosis in human A549 cells assessed as early apoptotic cells at IC50 incubated for 24 hrs by annexin V-FITC/PI staining based flow cytometry analysis (reference value: 5.6%); type: functional
PANC-1 [12] = test: Induction of apoptosis in human PANC-1 cells assessed as total cell viability at IC50 incubated for 24 hrs by annexin V-FITC/PI staining based flow cytometry analysis (reference value: 84.4%); type: functional
[13] = Cytotoxicity against human CCD 19Lu cells assessed as inhibition of cell growth incubated for 24 hrs by MTT assay; type: toxicity, cell-based
A549 [14] = test: Induction of apoptosis in human A549 cells assessed as increase in intracellular calcium level at 5.99 uM by Fluo-4-AM staining based flow cytometry analysis; type: functional, cell-based
[15] = Cytotoxicity against human hTERT-HPNE cells assessed as inhibition of cell growth incubated for 24 hrs by MTT assay; type: toxicity, cell-based
PANC-1 [16] = test: Induction of morphological changes in human PANC-1 cells assessed as chromatin condensation at 5.99 uM incubated for 24 hrs by acridine orange/ethidium bromide staining based fluorescence microscopic analysis; type: functional, cell-based
[17] = target: Cathepsin D (Homo sapiens) (UniProt P07339); test: Inhibition of cathepsin D (unknown origin) at 100 uM relative to control
Cathepsin D (Homo sapiens), sequence (P07339 65-162 limits assumed): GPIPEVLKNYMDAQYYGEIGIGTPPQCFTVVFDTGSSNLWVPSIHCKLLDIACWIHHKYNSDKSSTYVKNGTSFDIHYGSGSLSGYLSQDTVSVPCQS
Cathepsin D (Homo sapiens), sequence (P07339 169-412 limits assumed): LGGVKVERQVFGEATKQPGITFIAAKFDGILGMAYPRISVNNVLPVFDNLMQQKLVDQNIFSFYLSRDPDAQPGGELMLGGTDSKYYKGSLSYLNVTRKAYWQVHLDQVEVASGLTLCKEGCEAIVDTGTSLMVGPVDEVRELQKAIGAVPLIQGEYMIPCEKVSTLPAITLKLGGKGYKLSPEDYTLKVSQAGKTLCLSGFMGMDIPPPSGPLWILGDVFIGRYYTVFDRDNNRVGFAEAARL

PANC-1 [18] = test: Induction of mitochondrial membrane potential loss in human PANC-1 cells assessed as polarized cells at IC50 incubated for 24 hrs by JC-1 staining based flow cytometry assay (reference value: 92%); type: functional
A549 [19] = test: Cytotoxicity against human A549 cells assessed as inhibition of cell growth incubated for 24 hrs by MTT assay; type: functional, cell-based; conditions: A549, 24 h
[20] = Selectivity index, ratio of IC50 for cytotoxicity against human hTERT-HPNE cells to IC50 for cytotoxicity against human PANC-1 cells; type: toxicity, cell-based; conditions: hTERT-HPNE cells versus PANC-1 cells, read-out: Ratio IC50
PANC-1 [21] = test: Cytotoxicity against human PANC-1 cells assessed as inhibition of cell growth incubated for 24 hrs by MTT assay; type: functional, cell-based; conditions: PANC-1, 24 h
[22] = Selectivity index, ratio of IC50 for cytotoxicity against human CCD 19Lu cells to IC50 for cytotoxicity against human A549 cells; type: toxicity, cell-based; conditions: CCD 19Lu cells versus A549 cells, read-out: Ratio IC50
PANC-1 [23] = test: Induction of morphological changes in human PANC-1 cells assessed as cell shrinkage at 5.99 uM incubated for 24 hrs by acridine orange/ethidium bromide staining based fluorescence microscopic analysis; type: functional
PANC-1 [24] = test: Inhibition of DNA synthesis in human PANC-1 cells at 5.99 uM incubated for 24 hrs by BrdU incorporation assay relative to control; type: functional
A549 [25] = test: Induction of apoptosis in human A549 cells assessed as activation of caspase-3 by measuring caspase-3 negative cells at IC50 incubated for 24 hrs by flow cytometry analysis (reference value: 91.1%); type: functional
A549 [26] = test: Induction of mitochondrial membrane potential loss in human A549 cells assessed as depolarized cells at IC50 incubated for 24 hrs by JC-1 staining based flow cytometry assay (reference value: 6.9%); type: functional
A549 [27] = test: Induction of morphological changes in human A549 cells assessed as cell shrinkage at 5.99 uM incubated for 24 hrs by acridine orange/ethidium bromide staining based fluorescence microscopic analysis; type: functional
A549 [28] = test: Induction of apoptosis in human A549 cells assessed as activation of caspase-3 by measuring caspase-3 positive cells at IC50 incubated for 24 hrs by flow cytometry analysis (reference value: 8.4%); type: functional
A549 [29] = test: Inhibition of DNA synthesis in human A549 cells at 5.99 uM incubated for 24 hrs by BrdU incorporation assay relative to control; type: functional
PANC-1 [30] = test: Induction of morphological changes in human PANC-1 cells assessed as formation of apoptotic bodies at 5.99 uM incubated for 24 hrs by acridine orange/ethidium bromide staining based fluorescence microscopic analysis; type: functional, cell-based
A549 [31] = test: Induction of morphological changes in human A549 cells assessed as formation of apoptotic bodies at 5.99 uM incubated for 24 hrs by acridine orange/ethidium bromide staining based fluorescence microscopic analysis; type: functional, cell-based
PANC-1 [32] = test: Induction of morphological changes in human PANC-1 cells assessed as formation of apoptotic bodies at 10.04 uM incubated for 24 hrs by acridine orange/ethidium bromide staining based fluorescence microscopic analysis; type: functional, cell-based
A549 [33] = test: Inhibition of DNA synthesis in human A549 cells at IC50/4 incubated for 24 hrs by BrdU incorporation assay relative to control; type: functional
A549 [34] = test: Induction of morphological changes in human A549 cells assessed as cell shrinkage at 15.33 uM incubated for 24 hrs by acridine orange/ethidium bromide staining based fluorescence microscopic analysis; type: functional
A549 [35] = test: Inhibition of DNA synthesis in human A549 cells at IC50 incubated for 24 hrs by BrdU incorporation assay relative to control; type: functional
[36] = target: Procathepsin L (Homo sapiens) (UniProt P07711); test: Inhibition of cathepsin L (unknown origin) at 100 uM
Procathepsin L (Homo sapiens), sequence (P07711 114-333 limits assumed): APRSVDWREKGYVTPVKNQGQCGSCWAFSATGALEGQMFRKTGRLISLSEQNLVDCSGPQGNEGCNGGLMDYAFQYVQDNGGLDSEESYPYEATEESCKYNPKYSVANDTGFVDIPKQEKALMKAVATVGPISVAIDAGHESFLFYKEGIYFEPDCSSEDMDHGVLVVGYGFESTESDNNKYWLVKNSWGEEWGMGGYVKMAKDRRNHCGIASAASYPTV

[37] = target: Cathepsin D (Homo sapiens) (UniProt P07339); test: Inhibition of cathepsin D (unknown origin) at 100 uM
PANC-1 [38] = test: Induction of morphological changes in human PANC-1 cells assessed as cell shrinkage at 10.04 uM incubated for 24 hrs by acridine orange/ethidium bromide staining based fluorescence microscopic analysis; type: functional
PANC-1 [39] = test: Induction of morphological changes in human PANC-1 cells assessed as chromatin condensation at 10.04 uM incubated for 24 hrs by acridine orange/ethidium bromide staining based fluorescence microscopic analysis; type: functional, cell-based
A549 [40] = test: Induction of morphological changes in human A549 cells assessed as chromatin condensation at 15.33 uM incubated for 24 hrs by acridine orange/ethidium bromide staining based fluorescence microscopic analysis; type: functional, cell-based
A549 [41] = test: Inhibition of DNA synthesis in human A549 cells at IC50/2 incubated for 24 hrs by BrdU incorporation assay relative to control; type: functional
PANC-1 [42] = test: Inhibition of DNA synthesis in human PANC-1 cells at 10.04 uM incubated for 24 hrs by BrdU incorporation assay relative to control; type: functional
A549 [43] = test: Induction of morphological changes in human A549 cells assessed as formation of apoptotic bodies at 15.33 uM incubated for 24 hrs by acridine orange/ethidium bromide staining based fluorescence microscopic analysis; type: functional, cell-based

SMILES | Activity (PANC-1 [1]) [%] | Activity (PANC-1 [3]) [%] | Activity (A549 [5]) [%] | Activity (A549 [6]) [%] | Activity (PANC-1 [7]) [%] | Activity (PANC-1 [8]) [%] | Activity (PANC-1 [9]) [%] | Activity (A549 [10]) [%] | Activity (A549 [11]) [%] | Activity (PANC-1 [12]) [%] | IC50 at 24 h [13] [µM] | IC50 at 24 h [15] [µM] | Activity (PANC-1 [18]) [%] | pIC50 (A549 [19]) | selectivity ratio [20] | pIC50 (PANC-1 [21]) | selectivity ratio [22] | Activity (A549 [25]) [%] | Activity (A549 [26]) [%] | Activity (A549 [28]) [%] | further results
O=C1/C(=C/c2ccc(N3CCCC3)cc2)Cc2cc3c(cc21)OCO3 | 3.4 | 0.6 | 76.4 | 20 | 89.6 | 11.3 | 16.7 | 12.5 | 65.4 | 76.3 | 61.5 | > 1500 | 82 | > 4.93 | > 128 | > 4.93 | > 5.25 | 92.5 | 65 | 7.4 | Activity (A549 [2]): Active; Activity (A549 [4]): 85.4%; Activity (A549 [14]): Active; Activity (PANC-1 [16]): Active; inhibition [17]: 52.7%; Activity (PANC-1 [23]): Active; inhibition at 5.99 µM (PANC-1 [24]): 31%; Activity (A549 [27]): Active; inhibition at 5.99 µM (A549 [29]): 4.41%; Activity (PANC-1 [30]): Active; Activity (A549 [31]): Active
O=C1/C(=C/c2ccc(OCCN3CCOCC3)cc2)Cc2cc3c(cc21)OCO3 | 0.5 | 0.1 | 62.8 | 5.6 | 93.6 | 7.3 | 61.2 | 82.4 | 10.4 | 9.5 | 160 | > 1270 | 37.8 | 4.81 | > 127 | 5.00 | 10.4 | 93.2 | 35 | 6.9 | Activity (PANC-1 [32]): Active; inhibition (INH) (A549 [33]): 4.83%; Activity (A549 [34]): Active; inhibition (INH) (A549 [35]): 19.99%; inhibition [36]: inactive; inhibition [37]: inactive; Activity (PANC-1 [38]): Active; Activity (PANC-1 [39]): Active; Activity (A549 [40]): Active; inhibition (INH) (A549 [41]): 9.78%; inhibition at 10.04 µM (PANC-1 [42]): 18.4%; Activity (A549 [43]): Active

From ChEMBL document CHEMBL5247607, “Design, synthesis and biological evaluation of a new series of arylidene indanones as small molecules for targeted therapy of non-small cell lung carcinoma and prostate cancer” (Eur J Med Chem, 2022)
